Measured values taken from patent publication US11802120B2, “Fused cyclic urea derivatives as CRHR2 antagonist” (RaQualia Pharma Inc., priority 2018, dated 2023).

What follows are compounds tested against T1, human CRHR2-alpha (Homo sapiens, UniProt Q13324) (assay: cAMP functional assay for human CRHR2 (LANCE Ultra cAMP, TR-FRET)). Settings: CHO-K1 cells expressing human CRHR2-alpha, agonist human urocortin2 at EC80, cAMP; read-out: IC50 against CRHR2.
T1 sequence (Q13324 1-411): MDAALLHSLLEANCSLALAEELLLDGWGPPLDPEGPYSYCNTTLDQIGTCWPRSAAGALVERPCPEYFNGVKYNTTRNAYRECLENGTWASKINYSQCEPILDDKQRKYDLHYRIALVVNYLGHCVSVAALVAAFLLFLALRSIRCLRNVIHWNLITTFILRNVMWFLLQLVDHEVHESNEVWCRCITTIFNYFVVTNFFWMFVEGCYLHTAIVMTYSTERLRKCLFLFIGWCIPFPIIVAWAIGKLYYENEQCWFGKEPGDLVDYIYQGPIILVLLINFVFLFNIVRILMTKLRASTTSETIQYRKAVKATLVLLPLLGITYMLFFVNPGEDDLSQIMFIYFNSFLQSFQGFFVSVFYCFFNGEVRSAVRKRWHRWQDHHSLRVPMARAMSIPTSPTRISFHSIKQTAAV
Assay type: cell-based
Method: cAMP functional assay for human CRHR1 and CRHR2
The ability of the compounds of this invention to inhibit either CRHR2 or CRHR1 is assessed by 3′,5′-cyclic adenosine monophosphate (cAMP) production in cells using the LANCE Ultra cAMP assay kit (ParkinElmer), which are designed based on the homogeneous time-resolved fluorescence resonance energy transfer (TR-FRET) immunoassay.
CHO-K1 (Chinese hamster ovary) cells stably expressing either human CRHR2-alpha (DiscoveRX, Cat. 95-0048C2) or human CRHR1-beta (DiscoveRX, Cat. 95-0047C2) are grown in HAM's F12 media supplemented with 10% fetal bovine serum (FBS), 100 units/mL penicillin, 100 microg/mL hygromycin and 0.5 microg/mL geneticin at 37° C. in 5% CO2 humidified incubator to 80% confluence. After 7 hours starvation treatment in culture media containing 0.1% FBS, the cells are washed with Hanks balanced salt solution (HBSS) and cryopreserved.
For cAMP assay, frozen cells are thawed and washed with HBSS, followed by resuspended in assay buffer (HBSS containing 0.1% bovine serum albumin, 0.5 mM isobutylmethylxanthine and 5 mM Hepes, pH 7.4) at the appropriate concentration for the assay. The cell suspensions are plated on 384-well microplates (Greiner Bio-One) at a density of 4,000 cells per well. After preincubating the cells with various concentrations of the compounds for 30 min at 25° C., an assay buffer containing EC80 concentration of each agonist is added and the cells are incubated for 30 min at 25° C. Human urocortin2 (Peptide Institute) and CRF (Peptide Institute) are used as agonists for CRHR2 and CRHR1, respectively. For the termination of assay, europium-labeled cAMP tracer and ULight (registered trademark) dye labeled cAMP antibodies, both prepared with Lance-Ultra cAMP detection reagent (Perkin Elmer) are added in the plate and incubate for 60 min at 25° C. After incubation, TR-FRET signal is detected by EnVision plate reader (PerkinElmer). The IC50 values for compounds are calculated from dose-response curves by fitting the percent inhibition using XLfit (ID Business Solutions).

IC50, < 300 nM:
CNC(=O)c1cc(C)c(-n2c(=O)n(C[C@H]3CC[C@H](NC(=O)c4cc(Cl)cnc4C)CC3)c3ccccc32)cn1 [Example 199, 5-(3-(((1r,4r)-4-(5-chloro-2-methylnicotinamido)cyclo-hexyl)methyl)-2-oxo-2,3-dihydro-1H-benzo[d]imidazol-1-yl)-N,4-dimethylpicolinamide]
CNc1ccc(-n2c(=O)n(C[C@H]3CC[C@H](NC(=O)c4cc(Cl)cnc4C)CC3)c3ccccc32)cc1 [Example 646, 5-chloro-2-methyl-N-((1r,4r)-4-((3-(4-(methylamino)phenyl)-2-oxo-2,3-dihydro-1H-benzo[d]imidazol-1-yl)methyl)cyclohexyl)nicotinamide]
Cn1cnc2cc(-n3c(=O)n(C[C@H]4CC[C@H](NC(=O)c5cc(Cl)cnc5C(F)(F)F)CC4)c4ccccc43)ccc21 [Example 326, 5-chloro-N-((1r,4r)-4-((1′-methyl-2-oxo-1′H-[1,5′-bibenzo[d]imidazol]-3(2H)-yl)methyl)cyclohexyl)-2-(trifluoromethyl)nicotinamide]
Cc1ncc(Cl)cc1C(=O)N[C@H]1CC[C@H](Cn2c(=O)n(-c3cnc4c(cnn4CC4CC4)c3)c3ccccc32)CC1 [Example 252, 5-chloro-N-((1r,4r)-4-((3-(1-(cyclopropylmethyl)-1H-pyrazolo[3,4-b]pyridin-5-yl)-2-oxo-2,3-dihydro-1H-benzo [d]imidazol-1-yl)methyl)cyclo-hexyl)-2-methylnicotinamide]
CC(=O)N1CCc2cc(-n3c(=O)n(C[C@H]4CC[C@H](NC(=O)c5cc(Cl)cnc5C)CC4)c4ccccc43)cnc21 [Example 155, N-((1r,4r)-4-((3-(1-acetyl-2,3-dihydro-1H-pyrrolo[2,3-b]pyridin-5-yl)-2-oxo-2,3-dihydro-1H-benzo[d]imidazol-1-yl)methyl)cyclohexyl)-5-chloro-2-methylnicotinamide]
O=C(N[C@H]1CC[C@H](Cn2c(=O)n(-c3ccccc3Cl)c3ncccc32)CC1)c1cc(Cl)cnc1C(F)F [Example 366, 5-chloro-N-((1r,4r)-4-((3-(2-chlorophenyl)-2-oxo-2,3-dihydro-1H-imidazo[4,5-b]pyridin-1-yl)methyl)cyclo-hexyl)-2-(difluoromethyl) nicotinamide]
Cc1ncc(Cl)cc1C(=O)N[C@H]1CC[C@H](Cn2c(=O)n(-c3ccc(N4CCN(C)CC4)nc3)c3ccccc32)CC1 [Example 55, 5-chloro-2-methyl-N-((1r,4r)-4-((3-(6-(4-methylpiperazin-1-yl)pyridin-3-yl)-2-oxo-2,3-dihydro-1H-benzo[d]imidazol-1-yl)methyl)cyclohexyl)nicotinamide]
Cc1ncc(Cl)cc1C(=O)N[C@H]1CC[C@H](Cn2c(=O)n(-c3ccc4c(c3)cc(C(=O)N(C)C)n4C)c3ccccc32)CC1 [Example 405, 5-(3-(((1r,4r)-4-(5-chloro-2-methylnicotinamido)cyclo-hexyl)methyl)-2-oxo-2,3-dihydro-1H-benzo[d]imidazol-1-yl)-N,N,1-trimethyl-1H-indole-2-carboxamide]
Cc1ncc(Cl)cc1C(=O)N[C@H]1CC[C@H](Cn2c(=O)n(-c3ccc4ocnc4c3)c3ccccc32)CC1 [Example 264, N-((1r,4r)-4-((3-(benzo[d]oxazol-5-yl)-2-oxo-2,3-dihydro-1H-benzo[d]imidazol-1-yl)methyl)cyclo-hexyl)-5-chloro-2-methyl-nicotinamide]
CNC(=O)c1ccc(-n2c(=O)n(C[C@H]3CC[C@H](NC(=O)c4cc(Cl)ccc4OC(F)(F)F)CC3)c3ccccc32)cn1 [Example 531, 5-(3-(((1r,4r)-4-(5-chloro-2-(trifluoromethoxy)benzamido)cyclohexyl)methyl)-2-oxo-2,3-dihydro-1H-benzo[d]imidazol-1-yl)-N-methyl-picolinamide]
O=C(N[C@H]1CC[C@H](Cn2c(=O)n(-c3ccc(N[C@H]4CCOC4)nc3)c3ccccc32)CC1)c1cc(Cl)cnc1C(F)F [Example 372, 5-chloro-2-(difluoromethyl)-N-((1S,4r)-4-((2-oxo-3-(6-(((S)-tetrahydrofuran-3-yl)amino)pyridin-3-yl)-2,3-dihydro-1H-benzo[d]imidazol-1-yl)methyl)cyclohexyl)nicotinamide]
COc1ccc(-n2c(=O)n(C[C@H]3CC[C@H](NC(=O)c4cc(Cl)cnc4C(F)(F)F)CC3)c3ccccc32)cn1 [Example 228, 5-chloro-N-((1r,4r)-4-((3-(6-methoxypyridin-3-yl)-2-oxo-2,3-dihydro-1H-benzo[d]imidazol-1-yl)methyl)cyclo-hexyl)-2-(trifluoromethyl) nicotinamide]
CNc1ccc(-n2c(=O)n(C[C@H]3CC[C@H](NC(=O)c4cc(Cl)cnc4C(F)F)CC3)c3c(F)cccc32)cn1 [Example 672, 5-chloro-2-(difluoromethyl)-N-((1r,4r)-4-((7-fluoro-3-(6-(methylamino)pyridin-3-yl)-2-oxo-2,3-dihydro-1H-benzo [d]imidazol-1-yl)methyl)cyclo-hexyl)nicotinamide]
Cc1ncc(Cl)cc1C(=O)N[C@H]1CC[C@H](Cn2c(=O)n(-c3ccnc(-c4cnn(C)c4)c3)c3ccccc32)CC1 [Example 680, 5-chloro-2-methyl-N-((1r,4r)-4-((3-(2-(1-methyl-1H-pyrazol-4-yl)pyridin-4-yl)-2-oxo-2,3-dihydro-1H-benzo[d]imidazol-1-yl)methyl)cyclohexyl) nicotinamide]
O=C(N[C@H]1CC[C@H](Cn2c(=O)n(-c3cnc4[nH]ccc4c3)c3ccccc32)CC1)c1cc(Cl)cnc1C(F)(F)F [Example 424, 5-chloro-N-((1r,4r)-4-((2-oxo-3-(1H-pyrrolo[2,3-b]pyridin-5-yl)-2,3-dihydro-1H-benzo [d]imidazol-1-yl)methyl)cyclo-hexyl)-2-(trifluoromethyl) nicotinamide]
COc1cc(-n2c(=O)n(C[C@H]3CC[C@H](NC(=O)c4cc(Cl)cnc4C)CC3)c3ccccc32)cnc1OC [Example 118, 5-chloro-N-((1r,4r)-4-((3-(5,6-dimethoxypyridin-3-yl)-2-oxo-2,3-dihydro-1H-benzo[d]imidazol-1-yl)methyl)cyclo-hexyl)-2-methylnicotinamide]
O=C(N[C@H]1CC[C@H](Cn2c(=O)n(-c3ccc(NC(=O)C4CC4)nc3)c3ccccc32)CC1)c1cc(Cl)cnc1C(F)F [Example 502, 5-chloro-N-((1r,4r)-4-((3-(6-(cyclopropanecarboxa-mido)pyridin-3-yl)-2-oxo-2,3-dihydro-1H-benzo[d]imidazol-1-yl)methyl)cyclohexyl)-2-(difluoro-methyl)nicotinamide]
O=C(N[C@H]1CC[C@H](Cn2c(=O)n(-c3cnc(OCCO)c(F)c3)c3ccccc32)CC1)c1cc(Cl)cnc1C(F)F [Example 638, 5-chloro-2-(difluoromethyl)-N-((1r,4r)-4-((3-(5-fluoro-6-(2-hydroxyethoxy)pyridin-3-yl)-2-oxo-2,3-dihydro-1H-benzo[d]imidazol-1-yl)methyl)cyclohexyl)nicotinamide]
Cc1ncc(Cl)cc1C(=O)N[C@H]1CC[C@H](Cn2c(=O)n(-c3ccc(C(=O)Nc4cccnc4)nc3)c3ccccc32)CC1 [Example 177, 5-(3-(((1r,4r)-4-(5-chloro-2-methylnicotinamido)cyclo-hexyl)methyl)-2-oxo-2,3-dihydro-1H-benzo[d]imidazol-1-yl)-N-(pyridin-3-yl) picolinamide]
C[C@H](O)C(=O)Nc1ccc(-n2c(=O)n(C[C@H]3CC[C@H](NC(=O)c4cc(Cl)cnc4C(F)F)CC3)c3ccccc32)cn1 [Example 671, 5-chloro-2-(difluoromethyl)-N-((1S,4r)-4-((3-(6-((S)-2-hydroxypropanamido)pyridin-3-yl)-2-oxo-2,3-dihydro-1H-benzo[d]imidazol-1-yl)methyl)cyclohexyl)nicotinamide]
